Results reported in ChEMBL document CHEMBL4251742, “Modulating ADME Properties by Fluorination: MK2 Inhibitors with Improved Oral Exposure” (ACS Med Chem Lett, 2018).
Values after ≈ are worked out from the molar mass of the structure shown.

What was measured:
[1] = Aqueous solubility of the compound; type: physicochemical; conditions: buffer
[2] = Permeability of the compound by PAMPA; type: ADME
[3] = Lipophilicity, log D of compound at pH 7.4; conditions: buffer
[4] = (§1) Oral bioavailability in Sprague-Dawley rat at 3 mg/kg administered as single cassette dose by LC-MS/MS analysis; type: ADME, organism-based; conditions: Sprague-Dawley, in vivo
Rattus norvegicus [5] = assay: Dose normalized AUC in Sprague-Dawley rat at 3 mg/kg, po administered as single cassette dose by LC-MS/MS analysis; type: ADME, organism-based; conditions: in vivo
[6] = Clearance in Sprague-Dawley rat at 1 mg/kg, iv administered as single cassette dose by LC-MS/MS analysis; type: ADME, organism-based; conditions: in vivo
PBMC = assay: cells; conditions: Homo sapiens
Blood = assay: tissue or blood; conditions: Homo sapiens
[7] = Oral bioavailability in Sprague-Dawley rat at 3 mg/kg administered as single cassette dose measured over 8 hrs by LC-MS/MS analysis; type: ADME, organism-based; conditions: in vivo
Rattus norvegicus [8] = assay: Dose normalized AUC in Sprague-Dawley rat at 3 mg/kg, po administered as single cassette dose measured over 8 hrs by LC-MS/MS analysis; type: ADME, organism-based; conditions: in vivo
[9] = Clearance in Sprague-Dawley rat at 1 mg/kg, iv administered as single cassette dose measured over 8 hrs by LC-MS/MS analysis; type: ADME, organism-based; conditions: in vivo
Rattus norvegicus [10] = assay: as §1; type: ADME, organism-based; conditions: in vivo
[11] = molecular target: T1, MAP kinase-activated protein kinase 2 (Homo sapiens, UniProt P49137); assay: Inhibition of human MK2 using hsp27 peptide biotinyl-AYSRALSRQLSSGVSEIRCOOH as substrate after 45 mins by TR-FRET assay
[12] = molecular target: T1, MAP kinase-activated protein kinase 2; assay: Inhibition of MK2 in anisomycin-stimulated human THP1 cells assessed as reduction in hsp27 phosphorylation at Ser78 by FACS analysis

T1 sequence (P49137 whole entry): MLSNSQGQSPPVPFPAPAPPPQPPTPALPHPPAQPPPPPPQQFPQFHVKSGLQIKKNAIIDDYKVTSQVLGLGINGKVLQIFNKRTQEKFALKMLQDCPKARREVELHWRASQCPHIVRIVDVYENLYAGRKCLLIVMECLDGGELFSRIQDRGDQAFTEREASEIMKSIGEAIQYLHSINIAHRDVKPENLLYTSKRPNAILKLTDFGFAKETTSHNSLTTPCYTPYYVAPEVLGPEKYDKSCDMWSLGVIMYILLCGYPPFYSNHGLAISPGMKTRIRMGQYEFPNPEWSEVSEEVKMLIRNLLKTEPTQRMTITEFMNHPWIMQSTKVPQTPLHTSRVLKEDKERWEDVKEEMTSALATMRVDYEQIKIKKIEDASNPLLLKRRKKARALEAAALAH

SMILES	solubility [1] [µg/mL]	log(permeability) [2]	logD [3]	bioavailability [4] [%]	AUC/dose (Rattus norvegicus [5]) [nmol·h/L]	clearance [6] [mL/min/kg]	IC50 (PBMC) [nM]	IC50 (Blood) [nM]	bioavailability [7] [%]	AUC/dose (Rattus norvegicus [8]) [nmol·h/L]	clearance [9] [mL/min/kg]	F (Rattus norvegicus [10]) [%]	IC50 [11] [nM]	IC50 [12] [nM]
CN1CC2(CNC(=O)c3c2[nH]c2c3CCc3cnc(-c4cccc(F)c4)c(F)c3-2)C1	4 (≈ 9.84 µM)	-4.1	3.2	81	3486	11	550	1650	–	–	–	–	–	–
COc1ccc(-c2ncc3c(c2F)-c2[nH]c4c(c2CC3)C(=O)NCC42CN(C)C2)cc1F	–	-4.5	3.3	60	1301	20	240	800	–	–	–	–	–	–
CN1CC2(CNC(=O)c3c4c(n(C)c32)-c2cc(-c3cccc(Cl)c3)ncc2CC4)C1	–	-3.9	3.7	–	–	–	–	–	53	2415	10	–	–	–
CN1CC2(CNC(=O)c3c2[nH]c2c3CCc3cnc(-c4cccc(F)c4)nc3-2)C1	–	-4.6	–	–	2154	30	–	–	–	–	–	151	–	–
COc1ccc(-c2ncc3c(c2F)-c2[nH]c4c(c2CC3)C(=O)NCC42CN(C)C2)cn1	–	-4.8	2.8	77	1766	19	490	590	–	–	–	–	< 3	480
CN1CC2(CNC(=O)c3c2[nH]c2c3CCc3cnc(-c4cccc(F)c4)cc3-2)C1	32 (≈ 82.4 µM)	-5.2	3.4	27	121	100	–	670	–	–	–	–	–	–
